Test results taken from patent US20050119337A1, “Methods of application of Schisandrin B in the preparation of anticancer medications” (priority 2003, published 2005).
Read-outs that look alike come from different tables or passages of the source.

Experiments:
Format in all cases: cell-based
K562/vcr = experiment: Reversal of drug resistance, MTT assay, 48 h; settings: for IC50: Homo sapiens, read-out: IC50 Control; for IC50 / IC50 Schisandrin B: 48 h; for RF (Reversal Folds): IC50 in the absence of Schisandrin B divided by IC50 in the presence of Schisandrin B (10 μg/ml); for IC50 Schisandrin B: anticancer drug toward K562/vcr in the presence of Schisandrin B (10 μg/ml)
Procedure: To illustrate a method for reversal of drug resistance by application of Schisandrin B, cell lines K562/adr, K562/vcr (X. […] H. […] Cells were cultured in RPMI-1640 medium containing 10% fetal calf serum. […] The logarithmic growing cells were seeded into a 96 well plate (20,000 cells/well). Specific anticancer drugs (set forth in Table 1) and Schisandrin B in combination were added into the wells containing the select cell lines. […] Cell viability was assessed by MTT assays as described in X.

[1] = test system: human leukemia MDR cell line K562/adr; experiment: Reversal of drug resistance of K562/adr, MTT assay, 72 h; settings: for IC50: Homo sapiens, read-out: IC50 Control; for RF (Schisandrin B): IC50 in the absence divided by IC50 in the presence of Schisandrin B (10 μg/ml); for RF (verapamil): IC50 in the absence divided by IC50 in the presence of verapamil (6 μg/ml); for IC50 Schisandrin B: anticancer drug in the presence of Schisandrin B (10 μg/ml); for IC50 verapamil: anticancer drug in the presence of verapamil (6 μg/ml)
Procedure: (§1) In this embodiment, the IC50 of anticancer drugs in the presence or absence of Schisandrin B toward MDR cells was determined.
(§2) MTT assays were carried out in triplicate against human leukemia MDR cell line K562/adr and human epidermoid carcinoma MDR cell line KBV200. MTT assays as described previously (X. Hu, et al., Chemotherapy 41:296-305 (1995)) were used to determine the cytotoxicity of each anticancer drug in the presence or absence of Schisandrin B or verapmil.
Cells were treated with specific anticancer drugs as set forth therein. “Ctrl” represents control cells treated with anticancer drugs in the absence of Schisandrin B or verapamil. “SchB” represents cells treated with anticancer drugs in the presence of Schisandrin B (10 μg/ml).

[2] = test system: human epidermoid carcinoma MDR cell line KBV200; experiment: Reversal of drug resistance of KBV200, MTT assay, 72 h; settings: for IC50: Homo sapiens, read-out: IC50 Control; for RF (Schisandrin B): IC50 in the absence / IC50 in the presence of Schisandrin B (10 μg/ml); for RF (Schisandrin B) / RF (verapamil) / IC50 Schisandrin B / IC50 verapamil: KBV200; for RF (verapamil): IC50 in the absence / IC50 in the presence of verapamil (6 μg/ml); for IC50 Schisandrin B: anticancer drug in the presence of Schisandrin B (10 μg/ml); for IC50 verapamil: anticancer drug in the presence of verapamil (6 μg/ml)
Procedure: as §1, §2
Cells were treated with specific anticancer drugs as set forth therein. […] “SchB” represents cells treated with anticancer drugs in the presence of Schisandrin B (10 μg/ml).

[3] = anticancer drug toward K562/vcr in the absence of Schisandrin B
[4] = anticancer drug alone, K562/adr, 72 h
[5] = anticancer drug alone, KBV200, 72 h

Compound	IC50 Schisandrin B (K562/vcr)	IC50 Schisandrin B ([1]; K562/adr)	IC50 verapamil ([1]; K562/adr)	IC50 Schisandrin B [2]	IC50 verapamil [2]	IC50 (K562/vcr; [3])	IC50 [1, 4]	IC50 [2, 5]	IC50 (K562/vcr; K562/VCR)	RF (Reversal Folds) (K562/vcr)	IC50 ([1]; K562/Adr, 72 h)	RF (Schisandrin B) ([1]; K562/adr)	RF (verapamil) ([1]; K562/adr)	IC50 ([2]; KBv200, 72 h)	RF (Schisandrin B) [2]	RF (verapamil) [2]	IC50 Control [1, 4]	IC50 Control [2, 5]
COc1cccc2c1C(=O)c1c(O)c3c(c(O)c1C2=O)C[C@@](O)(C(C)=O)C[C@@H]3O[C@H]1C[C@H](N)[C@H](O)[C@H](C)O1 [Daunorubicin, daunorubicin]	0.011 ± 0.0001 mg/L	0.0977 ± 0.063 mg/L	0.0791 ± 0.0313 mg/L	0.0913 ± 0.003 mg/L	0.0555 ± 0.0175 mg/L	–	–	–	0.45 ± 0.25 mg/L	40.9	0.505 ± 0.0728 mg/L	5.16	6.38	0.305 ± 0.0728 mg/L	3.34	5.49	–	–
CC[C@@]1(O)C(=O)OCc2c1cc1n(c2=O)Cc2cc3cc(O)ccc3nc2-1 [Hydroxycamptothecine]	–	0.0417 ± 0.062 mg/L	0.0432 ± 0.0205 mg/L	0.0527 ± 0.0613 mg/L	0.0468 ± 0.0254 mg/L	–	–	–	–	–	–	8.84	8.53	–	3.07	3.48	0.3688 ± 0.0875 mg/L	0.1618 ± 0.1501 mg/L
CN(Cc1cnc2nc(N)nc(N)c2n1)c1ccc(C(=O)N[C@@H](CCC(=O)O)C(=O)O)cc1 [Methotrexate, methotrexate]	>10 mg/L	–	–	–	–	> 10 mg/L	–	–	–	–	–	–	–	–	–	–	–	–
O=C1c2c(O)ccc(O)c2C(=O)c2c(NCCNCCO)ccc(NCCNCCO)c21 [Mitoxantron, mitoxantron]	0.20 ± 0.06 mg/L	<0.01 mg/L	<0.01 mg/L	<0.01 mg/L	<0.01 mg/L	0.79 ± 0.33 mg/L	0.105 ± 0.0356 mg/L	0.0906 ± 0.0456 mg/L	–	4.0	–	>10.52	>10.52	–	>9.06	>9.06	–	–

The next lines start with results.

IC50 Schisandrin B (K562/vcr)	IC50 Schisandrin B ([1]; K562/adr)	IC50 verapamil ([1]; K562/adr)	IC50 Schisandrin B [2]	IC50 verapamil [2]	IC50 (K562/vcr; [3])	IC50 [1, 4]	IC50 [2, 5]	Compound	IC50 (K562/vcr; K562/VCR)	RF (Reversal Folds) (K562/vcr)	IC50 ([1]; K562/Adr, 72 h)	RF (Schisandrin B) ([1]; K562/adr)	RF (verapamil) ([1]; K562/adr)	IC50 ([2]; KBv200, 72 h)	RF (Schisandrin B) [2]	RF (verapamil) [2]	IC50 Control [1, 4]	IC50 Control [2, 5]
0.44 ± 0.14 mg/L	0.3033 ± 0.0812 mg/L	0.2218 ± 0.0909 mg/L	0.1033 ± 0.0545 mg/L	0.1226 ± 0.082 mg/L	2.56 ± 0.84 mg/L	1.32 ± 0.322 mg/L	0.988 ± 0.152 mg/L	COc1cccc2c1C(=O)c1c(O)c3c(c(O)c1C2=O)C[C@@](O)(C(=O)CO)C[C@@H]3O[C@H]1C[C@H](N)[C@@H](O)[C@H](C)O1 [Epirubicin, epirubicin]	–	5.81	–	4.35	5.95	–	9.56	8.06	–	–
0.050 ± 0.01 mg/L	0.0964 ± 0.0312 mg/L	0.0701 ± 0.0042 mg/L	0.1064 ± 0.0812 mg/L	0.1108 ± 0.0076 mg/L	0.55 ± 0.02 mg/L	0.428 ± 0.108 mg/L	0.526 ± 0.199 mg/L	COC(=O)C[C@](O)(CCCC(C)(C)O)C(=O)O[C@@H]1C(OC)=C[C@]23CCCN2CCc2cc4c(cc2[C@H]13)OCO4 [Homoharringtonine]	–	11	–	4.44	6.1	–	4.94	4.74	–	–
–	0.01913 ± 0.0208 mg/L	0.0143 ± 0.0093 mg/L	0.0316 ± 0.0019 mg/L	0.0329 ± 0.0079 mg/L	–	0.342 ± 0.132 mg/L	0.089 ± 0.0079 mg/L	CC(=O)O[C@H]1C(=O)[C@@]2(C)[C@H]([C@H](OC(=O)c3ccccc3)[C@]3(O)C[C@H](OC(=O)[C@H](O)[C@@H](NC(=O)c4ccccc4)c4ccccc4)C(C)=C1C3(C)C)[C@]1(OC(C)=O)CO[C@@H]1C[C@@H]2O [Taxol, taxol]	–	–	–	17.89	23.94	–	2.82	2.71	–	–
1.34 ± 0.08 mg/L	0.1486 ± 0.0554 mg/L	0.0872 ± 0.0236 mg/L	0.1572 ± 0.0946 mg/L	0.9872 ± 0.01555 mg/L	> 20 mg/L	0.916 ± 0.238 mg/L	> 20 mg/L	CC[C@]1(O)C[C@H]2CN(CCc3c([nH]c4ccccc34)[C@@](C(=O)OC)(c3cc4c(cc3OC)N(C=O)[C@H]3[C@@](O)(C(=O)OC)[C@H](OC(C)=O)[C@]5(CC)C=CCN6CC[C@]43[C@@H]65)C2)C1 [Vincristine, vincristine]	–	>14.9	–	6.2	10.51	–	127.2	20.26	–	–
